Test results taken from ChEMBL document CHEMBL4020771, “Activity of resveratrol triesters against primary acute lymphoblastic leukemia cells” (Bioorg Med Chem Lett, 2017).
Activity calls are given as the source filed them. The calls are words filed in the database; no cut-off is given here.

Legend:
[1] = Cytotoxicity against human ALL5 cells after 120 hrs by MTT method; assay type: functional, cell-based; conditions: ALL5, 120 h
HeLa = test: Cytotoxicity against human HeLa cells up to 10 uM after 72 hrs by MTT method; assay type: functional, cell-based
[2] = Cell cycle arrest in human ALL5 cells assessed as accumulation at subG1 phase at 25 uM after 48 hrs by propidium iodide staining based flow cytometric analysis (reference value: 3.44 %); assay type: functional
[3] = Cell cycle arrest in human ALL5 cells assessed as accumulation at G1 phase at 25 uM after 48 hrs by propidium iodide staining based flow cytometric analysis (reference value: 70.5 %); assay type: functional
[4] = Cell cycle arrest in human ALL5 cells assessed as accumulation at S phase at 25 uM after 48 hrs by propidium iodide staining based flow cytometric analysis (reference value: 11.7 %); assay type: functional
[5] = Cell cycle arrest in human ALL5 cells assessed as accumulation at G2 phase at 25 uM after 48 hrs by propidium iodide staining based flow cytometric analysis (reference value: 13.6 %); assay type: functional
[6] = Cell cycle arrest in human ALL5 cells assessed as accumulation at subG1 phase at 25 uM after 96 hrs by propidium iodide staining based flow cytometric analysis (reference value: 3.44 %); assay type: functional
[7] = Cell cycle arrest in human ALL5 cells assessed as accumulation at G1 phase at 25 uM after 96 hrs by propidium iodide staining based flow cytometric analysis (reference value: 70.5 %); assay type: functional
[8] = Cell cycle arrest in human ALL5 cells assessed as accumulation at S phase at 25 uM after 96 hrs by propidium iodide staining based flow cytometric analysis (reference value: 11.7 %); assay type: functional
[9] = Cell cycle arrest in human ALL5 cells assessed as accumulation at G2 phase at 25 uM after 96 hrs by propidium iodide staining based flow cytometric analysis (reference value: 13.6 %); assay type: functional
[10] = Cell cycle arrest in human ALL5 cells assessed as accumulation at subG1 phase at 25 uM after 120 hrs by propidium iodide staining based flow cytometric analysis (reference value: 3.44 %); assay type: functional
[11] = Cell cycle arrest in human ALL5 cells assessed as accumulation at G1 phase at 25 uM after 120 hrs by propidium iodide staining based flow cytometric analysis (reference value: 70.5 %); assay type: functional
[12] = Cell cycle arrest in human ALL5 cells assessed as accumulation at S phase at 25 uM after 120 hrs by propidium iodide staining based flow cytometric analysis (reference value: 11.7 %); assay type: functional
[13] = Cell cycle arrest in human ALL5 cells assessed as accumulation at G2 phase at 25 uM after 120 hrs by propidium iodide staining based flow cytometric analysis (reference value: 13.6 %); assay type: functional
ALL5 = test: Increase in p53 expression in human ALL5 cells at 25 uM after 96 hrs by Western blot analysis; assay type: functional, cell-based
[14] = Cell cycle arrest in human ALL5 cells assessed as accumulation at subG1 phase at 25 uM after 96 hrs in presence of CDK4/6 inhibitor palbociclib by propidium iodide staining based flow cytometric analysis (reference value: 1.47%); assay type: functional
[15] = Cell cycle arrest in human ALL5 cells assessed as accumulation at G1 phase at 25 uM after 96 hrs in presence of CDK4/6 inhibitor palbociclib by propidium iodide staining based flow cytometric analysis (reference value: 97.8%); assay type: functional
[16] = Cell cycle arrest in human ALL5 cells assessed as accumulation at S phase at 25 uM after 96 hrs in presence of CDK4/6 inhibitor palbociclib by propidium iodide staining based flow cytometric analysis (reference value: 0.07%); assay type: functional
[17] = Cell cycle arrest in human ALL5 cells assessed as accumulation at G2 phase at 25 uM after 96 hrs in presence of CDK4/6 inhibitor palbociclib by propidium iodide staining based flow cytometric analysis (reference value: 0.64%); assay type: functional

For `CCCCCCCCCC(=O)Oc1ccc(/C=C/c2cc(OC(=O)CCCCCCCCC)cc(OC(=O)CCCCCCCCC)c2)cc1`, the IC50 [1] was > 10 µM.
In the case of `O=C(/C=C/c1cccc(O)c1)Oc1ccc(/C=C/c2cc(OC(=O)/C=C/c3cccc(O)c3)cc(OC(=O)/C=C/c3cccc(O)c3)c2)cc1`, the IC50 [1] is reported as 10 µM.
For `O=C(Oc1ccc(/C=C/c2cc(OC(=O)c3ccccc3)cc(OC(=O)c3ccccc3)c2)cc1)c1ccccc1`, the IC50 [1] was > 10 µM.
For `CC(C)C(=O)Oc1ccc(/C=C/c2cc(OC(=O)C(C)C)cc(OC(=O)C(C)C)c2)cc1`, the Activity (HeLa) was “inactive”, the Activity [2] was 23.1% and the Activity [3] was 72.5%. The Activity [4] was 2.14%, the Activity [5] was 2.02% and the Activity [6] was 48.1%. It also gave an Activity [7] of 44.8%, an Activity [8] of 6.34% and an Activity [9] of 0.34%. The Activity [10] was 63.7%, the Activity [11] was 26.1% and the Activity [12] was 9.11%. For the same molecule, the Activity [13] was 0.49%, the Activity (ALL5) was “Active” and the Activity [14] was 5.76%. For the same molecule, the Activity [15] was 93.6%, the Activity [16] was 0.21% and the Activity [17] was 0.45%. The IC50 [1] was 5.1 µM.
`Oc1ccc(/C=C/c2cc(O)cc(O)c2)cc1` [RESVERATROL] gave an IC50 [1] of 10.5 µM.
In the case of `CC(C)CC(=O)Oc1ccc(/C=C/c2cc(OC(=O)CC(C)C)cc(OC(=O)CC(C)C)c2)cc1`, the Activity (HeLa) is reported as “inactive”, the Activity [2] is reported as 16.4% and the Activity [3] is reported as 66.4%. It also gave an Activity [4] of 9.6%, an Activity [5] of 6.99% and an Activity [6] of 59.4%. The Activity [7] was 32.5%, the Activity [8] was 5.14% and the Activity [9] was 2.2%. For the same molecule, the Activity [10] was 69.9%, the Activity [11] was 24.5% and the Activity [12] was 4.32%. The Activity [13] was 0.86%, the Activity (ALL5) was “Active” and the Activity [14] was 7.6%. The Activity [15] was 91.6%, the Activity [16] was 0.28% and the Activity [17] was 0.46%. It also gave an IC50 [1] of 4.9 µM.
`COc1cc(/C=C/C(=O)Oc2ccc(/C=C/c3cc(OC(=O)/C=C/c4ccc(O)c(OC)c4)cc(OC(=O)/C=C/c4ccc(O)c(OC)c4)c3)cc2)ccc1O` showed an IC50 [1] of 10 µM.
In the case of `COc1cccc(C(=O)Oc2ccc(/C=C/c3cc(OC(=O)c4cccc(OC)c4OC)cc(OC(=O)c4cccc(OC)c4OC)c3)cc2)c1OC`, the IC50 [1] is reported as > 10 µM.
